These are literature values, as cited in US8003635B2, “Superoxide dismutase mimics for the treatment of ocular disorders and diseases” (Novartis AG, priority 2001, dated 2011).

Series [1] has as its system light-induced retinal damage. Conditions: albino rats.
Series [2] has as its system onset of diabetes. Conditions: diabetogenic T-cell clone.
Series [3] has as its system diabetic rats.

Regarding `CC1(C)CC(O)CC(C)(C)N1[O]` [4-hydroxy-2,2,6,6-tetramethylpiperidine-1-oxyl], in series [1], the light-induced retinal damage entry was “inhibited light-induced retinal damage”.
With `CCN1C=CC=C/C1=C1/C2=NC(=C(c3cccc[n+]3CC)C3=NC(=C(c4cccc[n+]4CC)c4ccc([n-]4)C(c4cccc[n+]4CC)=C4C=CC1=N4)C=C3)C=C2.[Cl-].[Cl-].[Cl-].[Cl-].[Cl-].[Mn+3]` [AEOL10113], the onset of diabetes entry in series [2] is given as “delay the onset of diabetes”.
As for `[Cl-].[Cl-].[Mn+2].c1cc2nc(c1)CN[C@@H]1CCCC[C@H]1NCCN[C@@H]1CCCC[C@H]1NC2` [M40403], the “vascular and neural dysfunction” value in series [3] is “prevented vascular and neural dysfunction”.
